Assay results from paper PMC6779874, “ACT001, a novel PAI-1 inhibitor, exerts synergistic effects in combination with cisplatin by inhibiting PI3K/AKT pathway in glioma” (Cell Death & Disease, 2019).

How the values were obtained:
[1] = molecular target: T1, PAI-1 (plasminogen activator inhibitor-1) (Homo sapiens, UniProt P05121); assay: SPR (Biacore […], immobilized PAI-1); also CETSA in cell extract; prodrug that releases MCL; type: binding
T1 construct: gene SERPINE1; Recombinant human PAI-1

[2] = molecular target: T1, PAI-1 (plasminogen activator inhibitor-1); assay: SPR (Biacore […], immobilized PAI-1); also CETSA/ITDR in cell extract; type: binding

T1 sequence (P05121 24-402): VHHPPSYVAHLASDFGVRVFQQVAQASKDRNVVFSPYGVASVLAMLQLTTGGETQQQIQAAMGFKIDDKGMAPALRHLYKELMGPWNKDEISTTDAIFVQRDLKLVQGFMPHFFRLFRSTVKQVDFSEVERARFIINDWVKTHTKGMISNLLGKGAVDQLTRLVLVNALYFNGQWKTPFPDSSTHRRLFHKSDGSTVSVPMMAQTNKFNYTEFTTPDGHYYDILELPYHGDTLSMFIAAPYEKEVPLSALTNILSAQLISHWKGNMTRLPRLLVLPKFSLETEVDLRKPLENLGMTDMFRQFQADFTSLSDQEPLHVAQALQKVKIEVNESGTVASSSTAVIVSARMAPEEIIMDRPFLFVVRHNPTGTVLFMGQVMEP

| SMILES | Kd [1] | Kd [2] |
| --- | --- | --- |
| CC1=C2CC[C@@](C)(O)[C@@H]2[C@H]2OC(=O)[C@@H](CN(C)C)[C@@H]2CC1 [ACT001] | 2310 µM | – |
| C=C1C(=O)O[C@H]2[C@H]1CCC(C)=C1CC[C@@](C)(O)[C@@H]12 [MCL] | – | 10.8 µM |
